Results: patent US20240336565A1, “SOLID FORMS OF OSANETANT” (Acer Therapeutics, Inc., priority 2021, published 2024)

Legend:
[1] = Thermodynamic solubility in water and pH buffers; conditions: 24 h Solubility at 37° C.
[2] = Disproportionation study (stirring in water, XRPD, pH of liquor); format: physicochemical; conditions: slurry in water at 25° C., 24 h
Description: After 24 h total, a white slurry was observed and was isolated by centrifugation. The solids were analyzed by XRPD. The pH of the filtered liquor was measured at 5.63. […] After 24 h total, a white slurry was observed and was isolated by centrifugation. The solids were analyzed by XRPD. The pH of the filtered liquor was measured (pH=5.09).

[3] = Comparative studies: 7-day stability; format: physicochemical; conditions: 7 Day Stability
Description: Osanetant p-toluenesulfonic acid Form 1, osanetant benzene sulfonic acid Form 3, osanetant naphthalene-2-sulfonic acid Form 3, and osanetant phosphoric acid Form 7 were compared. Osanetant phosphoric acid Form 7 was obtained when preparation of osanetant phosphoric acid Form 4 was repeated and found to be not reproducible, and Form 7 was determined to be a mixture of hydrates).
Thus, osanetant benzene sulfonic acid salt Form 1 and osanetant p-toluene sulfonic acid salt Form 1 were identified as advantageous salts.

[4] = Long term stability: acid stability (2M HCl) at 60° C.; format: physicochemical
Description: (§1) Osanetant p-toluenesulfonic acid Form 1 and osanetant benzenesulfonic acid Form 1 were tested for long-term stability across a number of different conditions, as detailed below.
Acid Stability at 60° C.—Osanetant p-toluenesulfonic acid Form 1 and osanetant benzenesulfonic acid Form 1 were prepared at an osanetant content 10 times the normal working concentration then added to HPLC vials containing 2M HCl and stored in a darkened oven at 60° C. Samples were diluted to 2 mg/mL for analysis and were taken after T=1, 2, and 4 days storage.

[5] = Long term stability: thermal stability of solids at 60° C.; format: physicochemical
Description: as §1
Thermal stability of solids at 60° C.—Osanetant p-toluenesulfonic acid Form 1 and osanetant benzenesulfonic acid Form 1 were stored in a darkened oven at 60° C. in glass vials. Samples were taken after T=1, 2, 4, 7, and 14 days storage. […] The purity of the resulting material is described in Table 41: […]

[6] = Long term stability: oxidation (6% H2O2) at ambient temperature; format: physicochemical
Description: as §1
Oxidation at Ambient Temperature-Osanetant p-toluenesulfonic acid Form 1 and osanetant benzenesulfonic acid Form 1 were prepared at an osanetant content 10 times the normal working concentration then added to HPLC vials containing 6% H2O2 and stored in the dark at ambient laboratory conditions. Samples were diluted to 2 mg/mL for analysis and were taken after T=1, 2, 4, 7, and 14 days storage. […] The purity of the resulting material is described in Table 46: […]

[7] = Long term stability: oxidation (6% H2O2) at 60° C.; format: physicochemical
Description: as §1
Oxidation at 60° C.—Osanetant p-toluenesulfonic acid Form 1 and osanetant benzenesulfonic acid Form 1 were prepared at an osanetant content 10 times the normal working concentration then added to HPLC vials containing 6% H2O2 and stored in a darkened oven at 60° C. Samples were diluted to 2 mg/mL for analysis and were taken after T=1, 2, 4, 7, and 14 days storage. […] The purity of the resulting material is described in Table 47: […]

[8] = Long term stability: base (2M NaOH) at 60° C.; format: physicochemical
Description: as §1
Base at 60° C.—Osanetant p-toluenesulfonic acid Form 1 and osanetant benzenesulfonic acid Form 1 were prepared at an osanetant content 10 times the normal working concentration then added to HPLC vials containing 2M NaOH and stored in a darkened oven at 60° C. Samples were diluted to 2 mg/mL for analysis and were taken after T=1, 2, 4, 7, and 14 days storage. […] The purity of the resulting material is described in Table 45: […]

[9] = Long term stability: base (2M NaOH) at ambient temperature; format: physicochemical
Description: as §1
Base at Ambient Temperature—Osanetant p-toluenesulfonic acid Form 1 and osanetant benzenesulfonic acid Form 1 were prepared at an osanetant content 10 times the normal working concentration then added to HPLC vials containing 2M NaOH and stored in the dark at ambient laboratory conditions. Samples were diluted to 2 mg/mL for analysis and were taken after T=1, 2, 4, 7, and 14 days storage. […] The purity of the resulting material is described in Table 44: […]

[10] = Long term stability: acid stability (2M HCl) at ambient temperature; format: physicochemical
Description: as §1
Acid Stability at Ambient Temperature-Osanetant p-toluenesulfonic acid Form 1 and osanetant benzenesulfonic acid Form 1 were prepared at an osanetant content 10 times the normal working concentration then added to HPLC vials containing 2M HCl and stored in the dark at ambient laboratory conditions. Samples were diluted to 2 mg/mL for analysis and were taken after T=1, 2, 4, 7, and 14 days storage. […] The purity of the resulting material is described in Table 42: […]

## CC(=O)N(C)C1(c2ccccc2)CCN(CCC[C@]2(c3ccc(Cl)c(Cl)c3)CCCN(C(=O)c3ccccc3)C2)CC1.O=S(=O)(O)c1ccccc1 [Besylate Form 3]
[1]; pH 1.2
  Concentration: 216.3 µg/mL
[1]; pH 4.5
  Concentration: 232.4 µg/mL
[1]; pH 6.8
  Concentration: 363.7 µg/mL
[2]
  Liquor pH: 5.09
[3]; 40° C./75% RH
  HPLC Impurity Content: 0.06 % w/w
[3]; 80° C.
  HPLC Impurity Content: 0.24 % w/w
[3]; Ambient Light
  HPLC Impurity Content: 0.05 % w/w

## CC(=O)N(C)C1(c2ccccc2)CCN(CCC[C@]2(c3ccc(Cl)c(Cl)c3)CCCN(C(=O)c3ccccc3)C2)CC1.Cc1ccc(S(=O)(=O)O)cc1 [p-toluenesulfonic acid Form 1]
[4]; 2M HCl 60° C. study, control
  Control Purity: 99.8
[4]; 2M HCl, 60° C., dark, 1 day
  T = 1 day Purity: 94.8
[4]; 2M HCl, 60° C., dark, 2 days
  T = 2 day Purity: 89.0
[4]; 2M HCl, 60° C., dark, 4 days
  T = 4 day Purity: 80.5
[5]; solid at 60° C., dark, 1 month
  T = 1 month Purity: 99.5
[5]; solid at 60° C., dark, 1 day
  T = 1 day Purity: 99.7
[5]; solid at 60° C., dark, 2 days
  T = 2 day Purity: 99.7
[5]; solid at 60° C., dark, 4 days
  T = 4 day Purity: 99.7
[5]; solid at 60° C., dark, 7 days
  T = 7 day Purity: 99.6
[5]; solid at 60° C., dark, 14 days
  T = 14 day Purity: 99.7
[5]; solid, control, Purity = 100-total other substances
  Control Purity: 99.8
[6]; 6% H2O2, ambient, dark, 1 month
  T = 1 month Purity: 99.7
[6]; 6% H2O2, ambient, dark, 1 day
  T = 1 day Purity: 99.8
[6]; 6% H2O2, ambient, dark, 2 days
  T = 2 day Purity: 99.8
[6]; 6% H2O2, ambient, dark, 4 days
  T = 4 day Purity: 99.8
[6]; 6% H2O2, ambient, dark, 7 days
  T = 7 day Purity: 99.8
[6]; 6% H2O2, ambient, dark, 14 days
  T = 14 day Purity: 99.8
[6]; 6% H2O2 ambient study, control
  Control Purity: 99.8
[7]; 6% H2O2 60° C. study, control
  Control Purity: 99.8
[7]; 6% H2O2, 60° C., dark, 1 month
  T = 1 month Purity: 65.5
[7]; 6% H2O2, 60° C., dark, 1 day
  T = 1 day Purity: 99.3
[7]; 6% H2O2, 60° C., dark, 2 days
  T = 2 day Purity: 96.6
[7]; 6% H2O2, 60° C., dark, 4 days
  T = 4 day Purity: 97.4
[7]; 6% H2O2, 60° C., dark, 7 days
  T = 7 day Purity: 95.2
[7]; 6% H2O2, 60° C., dark, 14 days
  T = 14 day Purity: 92.4
[8]; 2M NaOH 60° C. study, control
  Control Purity: 99.8
[8]; 2M NaOH, 60° C., dark, 1 month
  T = 1 month Purity: 94.0
[8]; 2M NaOH, 60° C., dark, 1 day
  T = 1 day Purity: 99.6
[8]; 2M NaOH, 60° C., dark, 2 days
  T = 2 day Purity: 99.2
[8]; 2M NaOH, 60° C., dark, 4 days
  T = 4 day Purity: 98.4
[8]; 2M NaOH, 60° C., dark, 7 days
  T = 7 day Purity: 97.1
[8]; 2M NaOH, 60° C., dark, 14 days
  T = 14 day Purity: 94.7
[9]; 2M NaOH ambient study, control
  Control Purity: 99.8
[9]; 2M NaOH, ambient, dark, 1 month
  T = 1 month Purity: 99.7
[9]; 2M NaOH, ambient, dark, 1 day
  T = 1 day Purity: 99.8
[9]; 2M NaOH, ambient, dark, 2 days
  T = 2 day Purity: 99.8
[9]; 2M NaOH, ambient, dark, 4 days
  T = 4 day Purity: 99.8
[9]; 2M NaOH, ambient, dark, 7 days
  T = 7 day Purity: 99.8
[9]; 2M NaOH, ambient, dark, 14 days
  T = 14 day Purity: 99.8
[10]; 2M HCl ambient study, control
  Control Purity: 99.8
[10]; 2M HCl, ambient, dark, 1 month
  T = 1 month Purity: 98.0
[10]; 2M HCl, ambient, dark, 1 day
  T = 1 day Purity: 99.8
[10]; 2M HCl, ambient, dark, 2 days
  T = 2 day Purity: 99.8
[10]; 2M HCl, ambient, dark, 4 days
  T = 4 day Purity: 99.9
[10]; 2M HCl, ambient, dark, 7 days
  T = 7 day Purity: 99.6
[10]; 2M HCl, ambient, dark, 14 days
  T = 14 day Purity: 99.0
